The record followed here is patent publication US20260337245A1, “POLYPEPTIDE OR ANALOG THEREOF AND USE THEREOF” (Shenzhen Bay Laboratory, priority 2024, published 2026).

Starred links: 1 amine or outer side, 2 acyl side, 3 side chain; linkers in the order of their positions; H or OH if unused. Positions of bridges follow the written chain, without caps; N, C: chain ends. Non-standard residues stand in square brackets, D forms with d. Residues, ends and D or L forms follow the SMILES beside them. X1 = O=C(O)CCCCCCCCCCCCCCCCCCC(=O)N[C@@H](CCCCNC(=O)COCCOCCNC(=O)COCCOCCNC(=O)CCC(=O)N(CCNC(=O)C[*:1])CCNC(=O)C[*:2])C(=O)O; NMeR = CN[C@@H](CCCNC(=N)N)C(=O)O; hArg = N=C(N)NCCCC[C@H](N)C(=O)O; αMeF = C[C@](N)(Cc1ccccc1)C(=O)O; αMeL = CC(C)C[C@](C)(N)C(=O)O; αMeK = C[C@](N)(CCCCN)C(=O)O; Aib = CC(C)(N)C(=O)O

Assay [1] deals with T1, AMY3R (Homo sapiens, UniProt P30988).
T1 construct: expressed in transfected cells
T1 sequence (P30988 25-474): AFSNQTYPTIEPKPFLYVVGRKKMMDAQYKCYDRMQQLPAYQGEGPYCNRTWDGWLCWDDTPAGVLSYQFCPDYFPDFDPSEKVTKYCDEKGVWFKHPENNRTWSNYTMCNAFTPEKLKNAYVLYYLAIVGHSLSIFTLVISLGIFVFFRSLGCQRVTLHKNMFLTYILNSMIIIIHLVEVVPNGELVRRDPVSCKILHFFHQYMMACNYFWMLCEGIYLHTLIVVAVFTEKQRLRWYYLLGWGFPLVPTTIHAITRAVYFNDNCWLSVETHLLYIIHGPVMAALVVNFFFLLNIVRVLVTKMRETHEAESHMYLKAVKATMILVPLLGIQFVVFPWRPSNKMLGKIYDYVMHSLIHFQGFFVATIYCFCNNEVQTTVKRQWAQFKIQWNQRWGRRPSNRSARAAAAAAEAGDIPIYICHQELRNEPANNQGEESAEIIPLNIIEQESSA
T1 sequence (O60896 24-148 partner): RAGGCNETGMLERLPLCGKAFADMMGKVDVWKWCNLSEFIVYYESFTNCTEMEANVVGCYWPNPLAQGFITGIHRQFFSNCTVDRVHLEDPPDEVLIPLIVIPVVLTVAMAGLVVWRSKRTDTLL
Description: HTRF cAMP assay, AMY3R. Type of assay: cell-based. Particulars: HEK293/pGM-CREB-L-Luc/AMY3R pool, read-out: IC50 of receptor AMY3R. From the text: (§1) 2. The polypeptide derivatives prepared in Example 1 and Example 2 of the present disclosure can bind to the target AMYR and CTR receptors on the cell membrane, activate the receptors and release cAMP. Therefore, the activity of the analyte can be determined by using an HTRF (homogeneous time-resolved fluorescence) method and using a cAMP detection kit. The specific steps were as follows:
(§2) A stable transfected cell line of HEK293/pGM-CREB-L-Luc/AMY3R pool and HEK293/pGM-CREB-L-Luc/CTR pool was constructed. The polypeptide derivatives (i.e., AMY-001 to AMY-041) prepared in Examples 1 and 2 were subjected to 5-fold serial dilution from a maximum of 1000 nM to prepare a dilution series containing 8 to 11 concentration gradients. Cagrilintide and sCT were selected as positive controls for testing, and a dilution series was prepared according to the same method for testing. The test cell lines were selected and treated with cAMP-specific trypsin for digestion, and then suspended with 3 mL of serum-free DMEM medium by pipetting, and the cells were counted. 5 μL of IBMX (prepared with serum-free DMEM medium, 0.5 mM) and test cells (5 μL/7500 cells/well) were sequentially added to a 384-well plate, incubated under the conditions of 37° C., 5% CO2 for 30 minutes, then added with cAMP-d2 (5 μL, 1×) and Anti-cAMP-Cryptate (5 μL, 1×) and placed at room temperature for 1 hour. A HTRF value was determined by a chemiluminescence microplate reader, and the results were recorded. An activation curve was plotted using GraphPad Prism software to calculate an IC50 value of each polypeptide derivative. […] The IC50 values of some polypeptides were exemplarily shown in this example, see Table 3, FIG. 2 and FIG. 3 for details.

The target of assay [2] is T2, CTR (Homo sapiens, UniProt P30988).
T2 construct: expressed in transfected cells
T2 sequence (P30988 25-474): T1 sequence (P30988 25-474)
Description: HTRF cAMP assay, CTR. Type of assay: cell-based. The note with it: HEK293/pGM-CREB-L-Luc/CTR pool, read-out: IC50 of receptor CTR.
Excerpt: as §1, §2

On to `CC[C@H](C)[C@H](NC(=O)[C@@H]1CCCN1C(=O)CNC(=O)[C@H](Cc1ccccc1)NC(=O)[C@H](CC(N)=O)NC(=O)[C@H](CC(N)=O)NC(=O)[C@H](CO)NC(=O)[C@H](CO)NC(=O)[C@H](Cc1c[nH]cn1)NC(=O)[C@H](CCCNC(=N)N)NC(=O)[C@H](CC(C)C)NC(=O)[C@H](Cc1ccccc1)NC(=O)[C@H](CCC(=O)O)NC(=O)[C@H](C)NC(=O)[C@H](CC(C)C)NC(=O)[C@H](CCCNC(=N)N)NC(=O)[C@H](CCC(N)=O)NC(=O)[C@@H](NC(=O)[C@H](C)NC(=O)[C@@H]1CSSC[C@H](NC(=O)[C@H](CCCCN)NC(=O)CC[C@H](NC(=O)CCCCCCCCCCCCCCCCCCC(=O)O)C(=O)O)C(=O)N[C@@H](CC(N)=O)C(=O)N[C@@H]([C@@H](C)O)C(=O)N[C@@H](C)C(=O)N[C@@H]([C@@H](C)O)C(=O)N1)[C@@H](C)O)C(=O)N[C@@H](CC(C)C)C(=O)N1CCC[C@H]1C(=O)N1CCC[C@H]1C(=O)N[C@H](C(=O)N[C@@H](CC(N)=O)C(=O)N[C@H](C(=O)NCC(=O)N[C@@H](CO)C(=O)N[C@@H](CC(N)=O)C(=O)N[C@H](C(=O)N1CCC[C@H]1C(N)=O)[C@@H](C)O)C(C)C)[C@@H](C)O` [Cagrilintide, reference compound], for which, in assay [1], the EC50 was determined as 0.0123 nM.
Regarding `CC(=O)N[C@@H](C)C(=O)N[C@@H](CO)C(=O)N[C@@H](Cc1c[nH]cn1)C(=O)N[C@@H](CC(C)C)C(=O)N[C@@H](CO)C(=O)N[C@H](C(=O)N[C@@H](C)C(=O)N[C@H]1CCCCNC(=O)CN(C(=O)CCCNC(=O)COCCOCCNC(=O)COCCOCCNC(=O)CC[C@H](NC(=O)CCCCCCCCCCCCCCCCCCC(=O)O)C(=O)O)CC(=O)NCCCC[C@@H](C(=O)N[C@@H](CC(C)C)C(=O)N[C@@H](Cc2c[nH]cn2)C(=O)N[C@@](C)(CCCCN)C(=O)N[C@@H](CC(C)C)C(=O)NC(C)(C)C(=O)N[C@@H](CC(=O)O)C(=O)N[C@@H](Cc2ccc(O)cc2)C(=O)N2CCC[C@H]2C(=O)N[C@@H](CCC(N)=O)C(=O)N[C@H](C(=O)N[C@@H](CC(=O)O)C(=O)N[C@H](C(=O)NCC(=O)N[C@@H](C)C(=O)NCC(=O)N[C@@H](CO)C(=O)N2C[C@H](O)C[C@H]2C(N)=O)C(C)C)[C@@H](C)O)NC(=O)[C@H](C)NC(=O)[C@H](CO)NC(=O)[C@H](CC(C)C)NC(=O)[C@H](CCCNC(=N)N)NC(=O)CNC(=O)[C@H](CC(C)C)NC1=O)[C@@H](C)O` [AMY-021, Ac-ASHLSTAKLGRLSAKLH-(αMeK)-L-Aib-DYPQTDVGAGS-Hyp-NH2], the EC50 in assay [2] worked out at 0.0012 nM; in assay [1], 0.0044 nM.
The corresponding values for `CC(=O)N[C@@H](C)C(=O)N[C@@H](CO)C(=O)N[C@@H](Cc1c[nH]cn1)C(=O)N[C@@H](CC(C)C)C(=O)N[C@@H](CO)C(=O)N[C@H](C(=O)N[C@@H](C)C(=O)N[C@H](C(=O)N[C@@H](CC(C)C)C(=O)NCC(=O)N[C@@H](CCCNC(=N)N)C(=O)N[C@@H](CC(C)C)C(=O)N[C@H]1CSCC(=O)NCCN(C(=O)CCC(=O)NCCOCCOCC(=O)NCCOCCOCC(=O)NCCCC[C@H](NC(=O)CCCCCCCCCCCCCCCCCCC(=O)O)C(=O)O)CCNC(=O)CSC[C@@H](C(=O)N[C@@H](CC(=O)O)C(=O)N[C@@H](Cc2ccc(O)cc2)C(=O)N2CCC[C@H]2C(=O)N[C@@H](CCCNC(=N)N)C(=O)N[C@H](C(=O)N[C@@H](CC(=O)O)C(=O)N[C@H](C(=O)NCC(=O)N[C@@H](C)C(=O)NCC(=O)N[C@@H](CO)C(=O)N2CCC[C@H]2C(N)=O)C(C)C)[C@@H](C)O)NC(=O)[C@H](CC(C)C)NC(=O)[C@H](CCCCN)NC(=O)[C@H](Cc2c[nH]cn2)NC(=O)[C@H](CC(C)C)NC(=O)[C@H](CCC(=O)O)NC(=O)[C@H](C)NC1=O)C(C)C)[C@@H](C)O` [AMY-008] (Ac-ASHLSTAVLGRLCAELHKLCDYPRTDVGAGSP-NH2; linker 13-20 via X1) are 0.0502 nM and 0.0713 nM.
The corresponding values for `CC(=O)N[C@@H](C)C(=O)N[C@@H](CO)C(=O)N[C@@H](Cc1c[nH]cn1)C(=O)N[C@@H](CC(C)C)C(=O)N[C@@H](CO)C(=O)N[C@H](C(=O)N[C@@H](C)C(=O)N[C@H]1CSCC(=O)NCCN(C(=O)CCC(=O)NCCOCCOCC(=O)NCCOCCOCC(=O)NCCCC[C@H](NC(=O)CCCCCCCCCCCCCCCCCCC(=O)O)C(=O)O)CCNC(=O)CSC[C@@H](C(=O)N[C@@H](CC(C)C)C(=O)N[C@@H](Cc2c[nH]cn2)C(=O)N[C@@](C)(CCCCN)C(=O)N[C@@H](CC(C)C)C(=O)NC(C)(C)C(=O)N[C@@H](CC(=O)O)C(=O)N[C@@H](Cc2ccc(O)cc2)C(=O)N2CCC[C@H]2C(=O)N(C)[C@@H](CCCNC(=N)N)C(=O)N[C@H](C(=O)N[C@@H](CC(=O)O)C(=O)N[C@H](C(=O)NCC(=O)N[C@@H](C)C(=O)NCC(=O)N[C@@H](CO)C(=O)N2CCC[C@H]2C(N)=O)C(C)C)[C@@H](C)O)NC(=O)[C@H](C)NC(=O)[C@H](CO)NC(=O)[C@H](CC(C)C)NC(=O)[C@H](CCCCNC(=N)N)NC(=O)CNC(=O)[C@H](CC(C)C)NC1=O)[C@@H](C)O` [AMY-012, Ac-ASHLSTACLG-homoR-LSACLH-(αMeK)-L-Aib-DYP-(N-Me-R)-TDVGAGSP-NH2] (Ac-ASHLSTACLG[hArg]LSACLH[αMeK]L[Aib]DYP[NMeR]TDVGAGSP-NH2; linker 8-15 via X1) are 0.0357 nM and 0.0133 nM.
The corresponding values for `CC(=O)N[C@@H](C)C(=O)N[C@@H](CO)C(=O)N[C@@H](Cc1c[nH]cn1)C(=O)N[C@@](C)(CC(C)C)C(=O)N[C@@H](CO)C(=O)N[C@H](C(=O)N[C@@H](C)C(=O)N[C@H]1CSCC(=O)NCCN(C(=O)CCC(=O)NCCOCCOCC(=O)NCCOCCOCC(=O)NCCCC[C@H](NC(=O)CCCCCCCCCCCCCCCCCCC(=O)O)C(=O)O)CCNC(=O)CSC[C@@H](C(=O)N[C@@H](CC(C)C)C(=O)N[C@@H](Cc2c[nH]cn2)C(=O)N[C@@H](CCCCN)C(=O)N[C@@H](CC(C)C)C(=O)NC(C)(C)C(=O)N[C@@H](CC(=O)O)C(=O)N[C@@](C)(Cc2ccccc2)C(=O)N2CCC[C@H]2C(=O)N(C)[C@@H](CCCNC(=N)N)C(=O)N[C@H](C(=O)N[C@@H](CC(=O)O)C(=O)N[C@H](C(=O)NCC(=O)N[C@@H](C)C(=O)NCC(=O)N[C@@H](CO)C(=O)N2CCC[C@H]2C(N)=O)C(C)C)[C@@H](C)O)NC(=O)[C@H](C)NC(=O)[C@H](CO)NC(=O)[C@H](CC(C)C)NC(=O)[C@H](CCCNC(=N)N)NC(=O)CNC(=O)[C@H](CC(C)C)NC1=O)[C@@H](C)O` [AMY-010, Ac-ASH-(aMeK)-STACLGRLSACLHKL-Aib-D-(αMeF)-P-(N-Me-R)-TDVGAGSP-NH2] (Ac-ASH[αMeL]STACLGRLSACLHKL[Aib]D[αMeF]P[NMeR]TDVGAGSP-NH2; linker 8-15 via X1) are 0.0415 nM and 0.0523 nM.
In the case of `CC(=O)N[C@@H](C)C(=O)N[C@@H](CO)C(=O)N[C@@H](Cc1c[nH]cn1)C(=O)N[C@@H](CC(C)C)C(=O)N[C@@H](CO)C(=O)N[C@H](C(=O)N[C@H]1CSCC(=O)NCCN(C(=O)CCC(=O)NCCOCCOCC(=O)NCCOCCOCC(=O)NCCCC[C@H](NC(=O)CCCCCCCCCCCCCCCCCCC(=O)O)C(=O)O)CCNC(=O)CSC[C@@H](C(=O)N[C@@H](CCC(=O)O)C(=O)N[C@@H](CC(C)C)C(=O)N[C@@H](Cc2c[nH]cn2)C(=O)N[C@@H](CCCCN)C(=O)N[C@@H](CC(C)C)C(=O)NC(C)(C)C(=O)N[C@@H](CC(=O)O)C(=O)N[C@@H](Cc2ccc(O)cc2)C(=O)N2CCC[C@H]2C(=O)N[C@@H](CCCNC(=N)N)C(=O)N[C@H](C(=O)N[C@@H](CC(=O)O)C(=O)N[C@H](C(=O)NCC(=O)N[C@@H](C)C(=O)NCC(=O)N[C@@H](CO)C(=O)N2CCC[C@H]2C(N)=O)C(C)C)[C@@H](C)O)NC(=O)[C@H](CO)NC(=O)[C@H](CC(C)C)NC(=O)[C@H](CCCNC(=N)N)NC(=O)CNC(=O)[C@H](CC(C)C)NC(=O)[C@H](C(C)C)NC1=O)[C@@H](C)O` [AMY-002, Ac ASHLSTCVLGRLSCELHKL-Aib-DYPRTDVGAGSP-NH2] (Ac-ASHLSTCVLGRLSCELHKL[Aib]DYPRTDVGAGSP-NH2; linker 7-14 via X1), the EC50 in assay [2] came to 0.0906 nM; in assay [1] it was 0.0671 nM.
